According to patent US12384777B2 (Tay Therapeutics Limited, priority 2019, dated 2025):
Where two headings read alike, the source gives them in different places.

Tests used:
BRD4 BD1 = BRD4 BD1 (Homo sapiens (Human), UniProt O60885); test: Bromodomain binding assay (T7 phage display, qPCR), BRD4 BD1; conditions: for Kd: read-out: BRD4 BD1 Kd
BRD4 BD2 = BRD4 BD2 (Homo sapiens (Human), UniProt O60885); test: Bromodomain binding assay (T7 phage display, qPCR), BRD4 BD2; conditions: for Kd: read-out: BRD4 BD2 Kd
Procedure: T7 phage strains displaying bromodomains were grown in parallel in 24-well blocks in an E. coli host derived from the BL21 strain. E. coli were grown to log-phase and infected with T7 phage from a frozen stock (multiplicity of infection=0.4) and incubated with shaking at 32° C. until lysis (90-150 min). The lysates were centrifuged (5,000×g) and filtered (0.2 μm) to remove cell debris. Streptavidin-coated magnetic beads were treated with biotinylated small molecule or acetylated peptide ligands for 30 min at RT to generate affinity resins for bromodomain assays. The ligated beads were blocked with excess biotin and washed with blocking buffer (SeaBlock (Pierce), 1% BSA, 0.05% Tween 20, 1 mM DTT) to remove unbound ligand and to reduce non-specific phage binding. Binding reactions were assembled by combining bromodomains, ligated affinity beads, and test compounds in 1× binding buffer (16% SeaBlock, 0.32×PBS, 0.02% BSA, 0.04% Tween 20, 0.004% Sodium azide, 7.9 mM DTT). Test compounds were prepared as 1000× stocks in 100% DMSO and subsequently diluted 1:25 in MEG. The compounds were then diluted directly into the assays such that the final concentrations of DMSO and MEG were 0.1% and 2.4%, respectively. All reactions were performed in polypropylene 384-well plates in a final volume of 0.02 ml. The assay plates were incubated at RT with shaking for 1 hr and the affinity beads were washed with wash buffer (1×PBS, 0.05% Tween 20). The beads were then re-suspended in elution buffer (1×PBS, 0.05% Tween 20, 2 μM non-biotinylated affinity ligand) and incubated at RT with shaking for 30 min. The bromodomain concentration in the eluates was measured by quantitative polymerase chain reaction (qPCR).
An 11-point 3-fold serial dilution of each test compound was prepared in 100% DMSO at 1000× final test concentration. All compounds were distributed by acoustic transfer (non-contact dispensing) in 100% DMSO. The compounds were then diluted directly into the assays such that the final concentration of DMSO was 0.09%. Most dissociation constants were determined using a compound top concentration=10,000 nM. If the initial dissociation constant determined was <0.169 nM (the lowest concentration tested), the measurement was repeated with a serial dilution starting at a lower top concentration.
The same bromodomain assay procedure as that outlined above was used. Example compounds were screened at 30 times their Kd, and results for primary screen binding interactions are reported as ‘% Ctrl’, where lower numbers indicate stronger hits in the matrix.

[1] = test system: primary keratinocytes stimulated by polyinosinic:polycytidylic acid; test: Cellular activity broad panel: reduction of cytokine/chemokine levels in stimulated primary keratinocytes; type: cell-based; conditions: Homo sapiens, Keratinocyte
Procedure: • 1. Seed Primary Human Keratinocytes cells (PHK) at 9000 cells/well in a flat bottom 96 well plate. • 2. […] Cells are cultured for 24 hr prior to TLR ligand stimulation (polyinosinic:polycytidylic acid). • 4. Cells are treated with 20 μg/mL polyinosinic:polycytidylic acid for 48 hrs in 180 μL of media and treated for different compounds or controls. • 5. Supernatant is collected and Chemokine and Cytokines analysis is performed by Magpix-Luminex. Immunoassay Procedure Day 1 • 1. Add 200 μL of Assay Buffer per well. Shake 10 min, RT. Decant. • 2. Add 25 μL of Standard or Control to the appropriate wells. • 3. Add 25 μL of Assay Buffer to background and sample wells. • 4. Add 25 μL of cell media to background, standard and control wells. • 5. Add 25 μL neat samples to sample wells. • 6. Add 25 μL of Beads to each well. • 7. Incubate overnight (16-18 hr) at 4° C. Day 2 • 8. Remove well contents and wash 2× with 200 μL Wash buffer. • 9. Add 25 μL of Detection Antibodies per well. • 10. Incubate 1 hr at RT (20-25° C.). • 11. […] Incubate for 30 min at RT. • 13. Remove well contents and wash 2× with 200 μL Wash buffer. • 14. Add 150 μL of Wash Buffer per well. Resuspend the beads on a plate shaker for 5 min. • 15. Read on Luminex 100 μl (50 beads per bead set).

[2] = Stability in human skin S9 fraction; type: in vitro ADME; conditions: human, human skin S9 fraction, pH 7.4; 0.3 mg/mL S9, NADPH, UDPGA, 0.5 μM compound; read-out: T1/2 (min) in human skin S9 fractions
Procedure: An incubation mixture was prepared containing 50 mM potassium phosphate buffer, pH 7.4), 0.3 mg/mL human skin S9 (Sekisui Xenotech), NADPH (final conc 0.8 mg/mL), UDPGA (final conc 0.16 mg/mL) and warmed to 37° C. for 5 min. The reaction was initiated upon addition of test compound (final concentration 0.5 μM). Immediately, at time zero, then at 3, 6, 15, 30, 60, 120 and 180 min, an aliquot (50 μL) of the incubation mixture was removed and mixed with acetonitrile (100 μL) to terminate the reaction. Internal standard was added to all samples, the samples centrifuged to sediment precipitated protein and the plates then sealed prior to UPLC-MS/MS analysis using a Quattro Premier XE (Waters corporation, USA).
Grafit (Erithacus Ltd) was used to calculate the exponential decay and consequently the rate constant (k) from the ratio of peak area of test compound to internal standard at each timepoint. The half life (T1/2) of each test compound was determined using the following equation: T1/2=0.693/k

[3] = Hydrolytic stability at a range of pHs; type: physicochemical; conditions: for decomposition at all pH values tested: pH 4.0, 5.5 and 7.4, text summary; for pH 4.0 % decomposition: pH 4.0 buffer; for pH 4.0 % decomposition / pH 5.5 % decomposition / pH 7.4 % decomposition: 60° C., 6 days; for pH 5.5 % decomposition: pH 5.5 buffer; for pH 7.4 % decomposition: pH 7.4 buffer
Procedure: To test the hydrolytic stability a 1 mg/mL solution of test materials was made in DMSO (0.1% solution). To 300 μL of each solution in a HPLC vials was added 1200 μL of one of the following: pH 4.0 buffer—left at 60° C. for 5 days. Samples taken t=0 hr and 6 days pH 5.5 buffer—left at 60° C. for 5 days. Samples taken t=0 hr and 6 days pH 7.4 buffer—left at 60° C. for 5 days. Samples taken t=0 hr and 6 days A 100 μL aliquot was taken at each time point and added to 900 μL of DMSO. This sample was used to determine % decomposition.
% decomposition was measured with a Bruker MicrOTOF II focus ESI Mass Spectrometer connected in parallel to Dionex Ultimate 3000 RSLC system with diode array detector.

[4] = single point, screened at 30 times Kd, lower numbers indicate stronger hits
[5] = disease relevant markers, read-out: cellular EC50 values in stimulated human primary keratinocytes
[6] = poly I:C 20 μg/mL, 48 hrs, read-out: EC50 reduction of CCL2
[7] = poly I:C 20 μg/mL, 48 hrs, read-out: EC50 reduction of CCL20
[8] = poly I:C 20 μg/mL, 48 hrs, read-out: EC50 reduction of CCL27
[9] = poly I:C 20 μg/mL, 48 hrs, read-out: EC50 reduction of CXCL9
[10] = poly I:C 20 μg/mL, 48 hrs, read-out: EC50 reduction of GM-CSF
[11] = poly I:C 20 μg/mL, 48 hrs, read-out: EC50 reduction of IL-1a
[12] = poly I:C 20 μg/mL, 48 hrs, read-out: EC50 reduction of IL-6
[13] = poly I:C 20 μg/mL, 48 hrs, read-out: EC50 reduction of IL-8
[14] = poly I:C 20 μg/mL, 48 hrs, read-out: EC50 reduction of TNF-a
[15] = poly I:C 20 μg/mL, 48 hrs, read-out: EC50 reduction of TSLP

Structure (SMILES) | Kd (BRD4 BD1) | BRD4(1) % Ctrl (BRD4 BD1; [4]) | Kd (BRD4 BD2) | BRD4(2) % Ctrl (BRD4 BD2; [4]) | EC50 [1, 5] | EC50 [1, 6] | EC50 [1, 7] | EC50 [1, 8] | EC50 [1, 9] | EC50 [1, 10] | EC50 [1, 11] | EC50 [1, 12] | EC50 [1, 13] | EC50 [1, 14] | EC50 [1, 15] | half-life at 0.5 μM [2] | decomposition at all pH values tested [3] | pH 4.0 % decomposition [3] | pH 5.5 % decomposition [3] | pH 7.4 % decomposition [3]
Cn1cc(-c2cccc(O)c2Oc2ccccc2)c2cc[nH]c2c1=O [Example 1, 4-(3-hydroxy-2-phenoxyphenyl)-6-methyl-1,6-dihydro-7H-pyrrolo[2,3-c]pyridin-7-one] | ≤ 10 nM | 0 % Ctrl | ≤ 10 nM | 2.6 % Ctrl | < 100 nM | 10 to 100 nM | 10 to 100 nM | 10 to 100 nM | ≤ 10 nM | ≤ 10 nM | ≤ 10 nM | 10 to 100 nM | ≤ 10 nM | ≤ 10 nM | 10 to 100 nM | > 120 min | < 5% | 0% | 0% | 0%
Cn1cc(-c2c(O)cccc2Oc2ccccc2)c2cc[nH]c2c1=O [Example 3, 4-(2-hydroxy-6-phenoxyphenyl)-6-methyl-1,6-dihydro-7H-pyrrolo[2,3-c]pyridin-7-one] | 10 to 100 nM |  | ≤ 10 nM |  | < 100 nM | ≤ 10 nM | ≤ 10 nM | 10 to 100 nM | ≤ 10 nM | ≤ 10 nM | ≤ 10 nM | 10 to 100 nM | ≤ 10 nM | ≤ 10 nM | ≤ 10 nM | > 120 min | < 5% | 0% | 0% | 0%
